Test results taken from patent publication US11286263B2, “Macrocyclic fluorine substituted indole derivatives” (The Broad Institute, Inc., priority 2017, dated 2022).
pIC50: −log10 of the molar value. Several values for one entry are separate records, joined by “and”; a condition that tells them apart may be missing. Equal entries are not always repeated. Where two headings read alike, the source gives them in different places.

Legend:
MV-4-11 = experiment: Antiproliferation assay MV-4-11 (Assay 7); assay type: cell-based; settings: MV-4-11 cells, CellTiter-Glo, single determinations, read-out: IC50 Antiproli MV-4-11
Summary of the method: (§1)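 CellTiter-Glo luminescence readout; 72 h compound exposure, 37 °C, humidified; rim wells excluded; time-zero reference plate plated in parallel and read identically.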

BCL-2 = BCL-2 (Homo sapiens (Human), UniProt P10415); experiment: Protein-protein interaction assay BCL-2/Bad BH3 peptide (BCL-2 assay), TR-FRET; assay type: binding; settings: BCL-2/Bad BH3 peptide TR-FRET; median
BCL-2, sequence (P10415 1-211): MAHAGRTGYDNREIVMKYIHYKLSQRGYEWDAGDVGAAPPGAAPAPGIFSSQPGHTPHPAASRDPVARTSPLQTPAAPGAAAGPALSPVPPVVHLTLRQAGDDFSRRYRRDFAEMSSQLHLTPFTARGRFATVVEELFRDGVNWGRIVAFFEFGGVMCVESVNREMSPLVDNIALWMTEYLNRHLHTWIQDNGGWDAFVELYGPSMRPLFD
Protocol: Assay 3 Protein-Protein Interaction assay: BCL-2/Bad BH3 Peptide (BCL-2 Assay)
The dose-dependent inhibition by the compounds described in this invention of the interaction between BCL-2 and the BH3 domain of Bad (both human) was determined using a steady state binding competition assay with time-resolved fluorescence energy transfer (TR-FRET) readout. For that purpose BCL-2 (amino acids 1-211, C-terminal fused to a hexahistidine (6× His) tag (SEQ ID 5) and a synthetic Bad BH3-derived peptide of sequence Biotin-PEG2-PEG2-NLWAAQRYGRELRR-Nle-SDEFVDSFKK-amide (SEQ ID 4) served as protein receptor and tracer ligand respectively. The recombinant BCL-2 protein (expressed in E. coli) was purchased from BPS Bioscience (San Diego, Calif., USA). The Bad BH3-derived peptide can be obtained from e.g. Biosyntan (Berlin, Germany).
In the assay 11 different concentrations of each compound (0.1 nM, 0.33 nM, 1.1 nM, 3.8 nM, 13 nM, 44 nM, 0.15 μM, 0.51 μM, 1.7 μM, 5.9 μM and 20 μM) were typically measured as duplicates in the same microtiter plate. For that, 100-fold concentrated DMSO solutions were prepared by serial dilutions (1:3.4) of a 2 mM stock solution in a clear, 384-well microtiter plate (Greiner Bio-One, Frickenhausen, Germany). From there, 50 nl were transferred in a dark test plate (Greiner Bio-One, Frickenhausen, Germany). The assay was initiated by addition of 2 μl of a 2,5-fold concentrated His-BCL-2 solution (usually for a 1 nM end concentration in 5 μl reaction volume) in aqueous assay buffer [50 mM Tris/HCl pH 7, 100 mM sodium chloride (NaCl), 50 mM potassium fluoride (KF), 0.005% Tween-20, 2 mM DTT, 0.1% bovine gamma globulin (BGG)] to the compounds in the assay plate. This was followed by a 10-minute incubation step at 22° C. for pre-equilibration of the putative complex between His-BCL-2 and the compounds. After that, 3 μl of a 1.67-fold concentrated solution (in assay buffer) consisting of Bad BH3-derived peptide (1 nM end concentration) and TR-FRET detection reagents [1.67 nM anti-His-Eu cryptate and 1.67 nM streptavidin-XL665 (both from Cisbio Bioassays, Codolet, France)], were added.
The mixture was incubated in the dark for one hour at 22° C. and then overnight at 4° C. The formation of BCL-2/Bad complexes was determined by measuring the resonance energy transfer of the anti-His-Eu-cryptate antibody to the streptavidin-XL665 present in the reaction. For that purpose, the fluorescence emission at 620 nm and 665 nm after excitation at 330-350 nm was measured in a TR-FRET measuring instrument, for instance a Rubystar or a Pherastar (both from BMG Lab Technologies, Offenburg, Germany) or a Viewlux (Perkin-Elmer). The ratio of the emission at 665 nm and at 622 nm was used as indicator of the amount of BCL-2/Bad complexes present.
The resulting data (ratio) were normalized, taking 0% inhibition as the mean value of control measurements (usually 32 data points) where all reagents were included. In this case 50 nl DMSO were used instead of compounds. A 100% inhibition corresponded to the mean value of control measurements (usually 32 data points) where all reagents except BCL-2 were included. IC50 values were determined by regression analysis based on a 4 parameter equation (minimum, maximum, IC50, Hill; Y=Max+(Min−Max)/(1+(X/IC50)^Hill) using the Screener Software (Genedata).

SUDHL10 = experiment: Induction of caspase-3/7 activity, SUDHL10 (Assay 4); assay type: cell-based; settings: SUDHL10 cells
Summary of the method: (§2)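 DLBCL lines treated with compounds for 3 h at 37° C.; caspase-3/7 activity read by Caspase-Glo 3/7 luminescence. Medium-only background subtracted; EC50 fitted with bottom fixed at 1 and top set to reference compound's maximal induction.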

SUDHL5 [1] = experiment: Antiproliferation assay SUDHL5 (Assay 7); assay type: cell-based; settings: SUDHL5 cells, CellTiter-Glo, median, read-out: IC50 Antiproli SUDHL5 [M] (median)
Summary of the method: as §1

SUDHL5 [2] = experiment: Induction of cytotoxicity, SUDHL5 (Assay 6); settings: read-out: IC50 Cytotox SUDHL5 [M] (median), SUDHL5 cells, 5 h, CellTiter-Glo
SUDHL5 [3] = experiment: Induction of caspase-3/7 activity, SUDHL5 (Assay 4); assay type: cell-based; settings: SUDHL5 cells
Summary of the method: as §2

[4] = Homo sapiens, SU-DHL10, 3 h, Caspase-Glo 3/7, median
[5] = Homo sapiens, SU-DHL-5, 3 h, Caspase-Glo 3/7, median

Molecule: Cc1c2c(nn1C)COCCCCn1c(C(=O)O)c(CCCOc3ccc(F)c4ccccc34)c3ccc(F)c-2c31 (single isomer, unassigned; enantiomer 1) [Example 16, 4-fluoro-7-{3-[(4-fluoronaphthalen-1-yl)oxy]propyl}-2,3-dimethyl-2,10,11,12,13,15-hexahydro-pyrazolo[4′,3′:9,10][1,6]oxazacycloundecino[8,7,6-hi]indole-8-carboxylic acid (enantiomer 1)]
- pIC50 (MV-4-11; 72 h): 5.45
- IC50 (BCL-2): > 20 µM
- EC50 (SUDHL10; 3 h, Caspase-Glo 3/7, median): 4.1 µM
- IC50 (SUDHL5 [1]; 72 h): 9.3e-07 M
- IC50 (SUDHL5 [2]): 1.4e-06 M
- EC50 (SUDHL5 [3]; 3 h, Caspase-Glo 3/7, median): 0.72 µM

Molecule: Cc1nn(C)c2c1-c1c(F)ccc3c(CCCOc4cccc5c4CCCC5)c(C(=O)O)n(c13)CCCCOC2 (racemic) [Example 34, (rac)-13-fluoro-10,12-dimethyl-1-(3-((5,6,7,8-tetrahydronaphthalen-1-yl)oxy)propyl)-4,5,6,7,9,10-hexahydropyrazolo[4′,3′:9,10][1]oxa[6]azacycloundecino[8,7,6-hi]indole-2-carboxylic acid]
- pIC50 (MV-4-11; Homo sapiens, MV4-11, 72 h): 4.94
- pIC50 (MV-4-11; 72 h): 4.91
- IC50 (BCL-2): > 20 µM
- EC50 (SUDHL10; [4]): 5.9 µM
- IC50 (SUDHL5 [1]; Homo sapiens, SU-DHL-5, 72 h): 1.7e-06 M
- IC50 (SUDHL5 [2]; Homo sapiens, SU-DHL-5, 5 h): 2.6e-06 M
- EC50 (SUDHL5 [3]; [5]): 1.8 µM

Molecule: CCc1nn(C)c2c1-c1c(F)ccc3c(CCCOc4cccc5c4CCC5)c(C(=O)O)n(c13)CCCCOC2 (racemic) [Example 45, (rac)-1-(3-((2,3-dihydro-1H-inden-4-yl)oxy)propyl)-12-ethyl-13-fluoro-10-methyl-4,5,6,7,9,10-hexahydropyrazolo[4′,3′:9,10][1]oxa[6]azacycloundecino[8,7,6-hi]indole-2-carboxylic acid]
- pIC50 (MV-4-11; Homo sapiens, MV4-11, 72 h): 5.21
- pIC50 (MV-4-11; 72 h): 5.18
- IC50 (BCL-2): > 20 µM
- EC50 (SUDHL10; [4]): 6.4 µM
- IC50 (SUDHL5 [1]; Homo sapiens, SU-DHL-5, 72 h): 1.9e-06 M
- IC50 (SUDHL5 [2]; Homo sapiens, SU-DHL-5, 5 h): 1.9e-06 M
- EC50 (SUDHL5 [3]; [5]): 1.4 µM

Molecule: (rac)-1-(3-((2,3-dihydro-1H-inden-4-yl)oxy)propyl)-12-ethyl-13-fluoro-11-methyl-4,5,6,7,9,11-hexahydropyrazolo[4′,3′:9,10][1]oxa[6]azacycloundecino[8,7,6-hi]indole-2-carboxylic acid [Example 30]
- pIC50 (MV-4-11; 72 h): 5.75 and 5.52
- IC50 (BCL-2): > 20 µM
- EC50 (SUDHL10; 3 h, Caspase-Glo 3/7, median): 1.7 µM
- IC50 (SUDHL5 [1]; 72 h): 1.5e-06 M
- EC50 (SUDHL5 [3]; 3 h, Caspase-Glo 3/7, median): 0.87 µM

Molecule: Cc1nn(C)c2c1-c1c(F)ccc3c(CCCOc4cccc5cc(F)ccc45)c(C(=O)O)n(c13)CCCCOC2 (racemic) [Example 32, (rac)-13-fluoro-1-(3-((6-fluoronaphthalen-1-yl)oxy)propyl)-10,12-dimethyl-4,5,6,7,9,10-hexahydropyrazolo[4′,3′:9,10][1]oxa[6]azacycloundecino[8,7,6-hi]indole-2-carboxylic acid]
- pIC50 (MV-4-11; Homo sapiens, MV4-11, 72 h): 5.31
- pIC50 (MV-4-11; 72 h): 5.32
- IC50 (BCL-2): > 20 µM
- EC50 (SUDHL10; [4]): 2.6 µM
- IC50 (SUDHL5 [1]; Homo sapiens, SU-DHL-5, 72 h): 8.5e-07 M
- IC50 (SUDHL5 [2]; Homo sapiens, SU-DHL-5, 5 h): 1.1e-06 M
- EC50 (SUDHL5 [3]; [5]): 0.8 µM

Molecule: CCc1c2c(nn1C)CN(C)CCCCn1c(C(=O)O)c(CCCOc3cccc4ccccc34)c3ccc(F)c-2c31 (racemic) [Example 54, (rac)-3-ethyl-4-fluoro-2,14-dimethyl-7-[3-(1-naphthyloxy)propyl]-10,11,12,13,14,15-hexahydro-2H-pyrazolo[3′,4′:8,9][1,6]diazacycloundecino[10,11,1-hi]indole-8-carboxylic acid]
- IC50 (BCL-2): > 20 µM
- EC50 (SUDHL10; [4]): 0.68 µM
- IC50 (SUDHL5 [1]; Homo sapiens, SU-DHL-5, 72 h): 4.4e-07 M
- IC50 (SUDHL5 [2]; Homo sapiens, SU-DHL-5, 5 h): 4.5e-07 M
- EC50 (SUDHL5 [3]; [5]): 0.23 µM

Molecule: CCc1c2c(nn1C)CN(C)CCCCn1c(C(=O)O)c(CCCOc3cccc4c3CCCC4)c3ccc(F)c-2c31 (racemic) [Example 52, (rac)-3-ethyl-4-fluoro-2,14-dimethyl-7-[3-(5,6,7,8-tetrahydronaphthalen-1-yloxy)propyl]-10,11,12,13,14,15-hexahydro-2H-pyrazolo[3′,4′:8,9][1,6]diazacycloundecino[10,11,1-hi]indole-8-carboxylic acid]
- IC50 (BCL-2): > 20 µM
- EC50 (SUDHL10; [4]): 0.21 µM
- IC50 (SUDHL5 [1]; Homo sapiens, SU-DHL-5, 72 h): 2.3e-07 M
- IC50 (SUDHL5 [2]; Homo sapiens, SU-DHL-5, 5 h): 4.3e-07 M
- EC50 (SUDHL5 [3]; [5]): 0.28 µM

Molecule: Cc1c2c(nn1C)COC/C=C\Cn1c(C(=O)O)c(CCCOc3cccc4ccccc34)c3ccc(F)c-2c31 (racemic) [Example 1, (rac)-(11Z)-4-fluoro-2,3-dimethyl-7-[3-(naphthalen-1-yloxy)propyl]-2,10,13,15-tetrahydro-pyrazolo[4′,3′:9,10][1,6]oxazacycloundecino[8,7,6-hi]indole-8-carboxylic acid]
- pIC50 (MV-4-11; Homo sapiens, MV4-11, 72 h): 4.95
- pIC50 (MV-4-11; 72 h, listed as 01): 4.85
- IC50 (BCL-2): > 20 µM
- EC50 (SUDHL10; [4]): 2.5 µM
- IC50 (SUDHL5 [1]; Homo sapiens, SU-DHL-5, 72 h): 9e-07 M
- IC50 (SUDHL5 [2]; Homo sapiens, SU-DHL-5, 5 h): 1.2e-06 M
- EC50 (SUDHL5 [3]; [5]): 1.4 µM

Molecule: CCc1c2c(nn1C)CN(C)CCCCn1c(C(=O)O)c(CCCOc3cccc4cc(F)ccc34)c3ccc(F)c-2c31 (racemic) [Example 53, (rac)-3-ethyl-4-fluoro-7-{3-[(6-fluoro-1-naphthyhoxy]propyl}-2,14-dimethyl-10,11,12,13,14,15-hexahydro-2H-pyrazolo[3′,4′:8,9][1,6]diazacycloundecino[10,11,1-hi]indole-8-carboxylic acid]
- IC50 (BCL-2): > 20 µM
- EC50 (SUDHL10; [4]): 0.49 µM
- IC50 (SUDHL5 [1]; Homo sapiens, SU-DHL-5, 72 h): 3.7e-07 M
- IC50 (SUDHL5 [2]; Homo sapiens, SU-DHL-5, 5 h): 3.3e-07 M
- EC50 (SUDHL5 [3]; [5]): 0.38 µM

Molecule: CCc1c2c(nn1C)COC/C=C\Cn1c(C(=O)O)c(CCCOc3cccc4ccccc34)c3ccc(F)c-2c31 (racemic) [Example 5, (rac)-(11Z)-3-ethyl-4-fluoro-2-methyl-7-[3-(naphthalen-1-yloxy)propyl]-2,10,13,15-tetrahydro-pyrazolo[4′,3′:9,10][1,6]oxazacycloundecino[8,7,6-hi]indole-8-carboxylic acid]
- IC50 (BCL-2): > 20 µM
- EC50 (SUDHL10; [4]): 3.5 µM
- IC50 (SUDHL5 [1]; Homo sapiens, SU-DHL-5, 72 h): 1.7e-06 M
- IC50 (SUDHL5 [2]; Homo sapiens, SU-DHL-5, 5 h): 1.5e-06 M
- EC50 (SUDHL5 [3]; [5]): 1 µM

Molecule: CCc1c2c(nn1C)CN(C)CCCCn1c(C(=O)O)c(CCCOc3cccc4c3CCC4)c3ccc(F)c-2c31 (racemic) [Example 51, (rac)-7-[3-(2,3-dihydro-1H-inden-4-yloxy)propyl]-3-ethyl-4-fluoro-2,14-dimethyl-10,11,12,13,14,15-hexahydro-2H-pyrazolo[3′,4′:8,9][1,6]diazacycloundecino[10,11,1-hi]indole-8-carboxylic acid]
- IC50 (BCL-2): > 20 µM
- EC50 (SUDHL10; [4]): 0.44 µM
- IC50 (SUDHL5 [1]; Homo sapiens, SU-DHL-5, 72 h): 2.6e-07 M
- IC50 (SUDHL5 [2]; Homo sapiens, SU-DHL-5, 5 h): 3.6e-07 M
- EC50 (SUDHL5 [3]; [5]): 0.23 µM
